Patent US20240210412A1, “SULFONYL-TRIAZOLE COMPOUNDS USEFUL AS LIGANDS AND INHIBITORS OF PROSTAGLANDIN REDUCTASE 2” (University of Virginia Patent Foundation, priority 2021, published 2024)

Key:
[1] = target: T1, Q93052 (Homo sapiens, UniProt Q93052); test: SILAC LC-MS ABPP; type: cell-based; conditions: 25 μM 2 h, live DM93 cells
T1 construct: endogenous in cells; host or cells: DM93 cells (SILAC), live-cell treatment
T1 sequence (Q93052 1-612): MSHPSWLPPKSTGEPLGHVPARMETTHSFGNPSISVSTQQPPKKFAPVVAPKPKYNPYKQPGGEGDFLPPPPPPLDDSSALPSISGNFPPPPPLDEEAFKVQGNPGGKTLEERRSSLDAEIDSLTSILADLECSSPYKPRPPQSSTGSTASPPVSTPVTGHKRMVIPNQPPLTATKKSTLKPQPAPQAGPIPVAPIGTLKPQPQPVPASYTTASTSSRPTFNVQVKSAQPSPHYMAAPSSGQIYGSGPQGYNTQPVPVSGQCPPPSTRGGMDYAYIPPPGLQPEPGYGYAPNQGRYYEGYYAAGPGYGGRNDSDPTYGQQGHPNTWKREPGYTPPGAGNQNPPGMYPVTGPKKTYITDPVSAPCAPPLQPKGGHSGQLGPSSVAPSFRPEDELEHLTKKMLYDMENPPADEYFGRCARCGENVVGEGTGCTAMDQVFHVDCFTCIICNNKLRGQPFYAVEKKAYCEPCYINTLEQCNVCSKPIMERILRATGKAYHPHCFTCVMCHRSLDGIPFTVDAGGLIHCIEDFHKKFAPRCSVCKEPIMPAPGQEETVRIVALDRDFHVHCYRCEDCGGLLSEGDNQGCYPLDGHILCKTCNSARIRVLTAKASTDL
Procedure: (§1) Cells were grown to 90-95% confluence before being washed once with warm, sterile DPBS (1×, 5 mL), followed by addition of 10 mL of serum-free media (supplemented with 1% L-glutamine) containing either DMSO or SuTEx fragment (in DMSO) was added. Light cells were treated with DMSO vehicle while the heavy cells were treated with DMSO or SuTEx fragment (in DMSO) and incubated for 2 hrs. After 2 hrs, the cells were treated with SuTEx alkyne probe (HHS475, 10 μL of 1000× DMSO stock) and incubated for an additional 2 hrs. The media was aspirated and cells washed with cold PBS (5 mL) and harvested. Cells were spun at 500×g for 5 min at 4° C. followed by removal of supernatant. Pellets were resuspended in 1 mL of cold DPBS and spun at 1,400×g for 3 min at 4° C. followed by removal of supernatant. The cells were lysed in PBS by sonication and fractionated (100,000×g, 45 min, 4° C.).The light and heavy soluble fractions were diluted to 2.3 mg/mL in PBS and 432 μL were used for analysis (1 mg total protein). The probe-modified proteomes were conjugated to desthiobiotin-PEG3-azide (10 μl of 10 mM stock in DMSO; 200 μM final concentration) using TCEP (10 μl of fresh 50 mM stock in water, 1 mM final concentration), TBTA ligand (33 μl of a 1.7 mM 4:1 t-butanol/DMSO stock, 100 μM final concentration) and CuSO4 (10 μl of 50 mM stock, 1 mM final concentration). Samples were vortexed to mix and incubated for 1 hr at room temperature. The heavy and light proteomes were mixed 1:1 and the subsequent steps, including LC-MS/MS data analysis, were performed as previously described^[8a].
(§2) Coupling cell-based screens with chemical proteomics can facilitate the identification of target protein and binding sites that engage and are irreversibly modified by covalent ligands^[12]. In these assays, covalent ligands block SuTEx activity-based probe (ABP) labeling at protein sites, and the competition of probe labeling can be used to quantify potency and selectivity across the proteome^[10a]. To facilitate quantitative chemical proteomics, DM93 melanoma cells were cultured using stable isotopic labeling by amino acids in cell culture (SILAC)^[13]. Cells cultured in “light” media were treated with dimethyl sulfoxide (DMSO) vehicle while cells cultured in “heavy” media were treated with SuTEx ligand (25 μM, 2 hours, 37° C.). Next, cells were treated with HHS-475 probe (100 μM, 2 hours, 37° C.) followed by lysis and processing of proteomes for analysis. Probe-modified proteins from the soluble fraction were conjugated to a desthiobiotin-azide tag by copper-catalyzed azide-alkyne cycloaddition (CuAAC)^[14] followed by mixing of the light and heavy proteomes. The combined proteomes were digested with trypsin protease to produce probe-modified peptides, followed by enrichment and purification by avidin affinity chromatography. Probe-modified peptides were resolved, identified, and quantified by high-resolution liquid chromatography-tandem mass spectrometry (LC-MS/MS). Resultant data were analyzed as previously described^[8a, 10a]. Table 2, below, lists sites of modification targeted by sulfonyl-triazole compounds HHS-0101, HHS-0201, HHS-0301, HHS-0401, and HHS-0701. The format of the table is as follows: protein Uniprot accession number (see uniprot.org); tyrosine site (amino acid position) modified; treatment (sulfonyl-triazole compound identification number, followed by Y (where if multiple compounds modify the same site, the compounds are separated by vertical lines).

[2] = target: T2, P25205 (Homo sapiens, UniProt P25205); test: SILAC LC-MS ABPP; type: cell-based; conditions: 25 μM 2 h, live DM93 cells
T2 construct: Probe-modified proteins from the soluble fraction were conjugated to a desthiobiotin-azide tag; endogenous in cells; host or cells: DM93 (SILAC)
T2 sequence (P25205 1-808): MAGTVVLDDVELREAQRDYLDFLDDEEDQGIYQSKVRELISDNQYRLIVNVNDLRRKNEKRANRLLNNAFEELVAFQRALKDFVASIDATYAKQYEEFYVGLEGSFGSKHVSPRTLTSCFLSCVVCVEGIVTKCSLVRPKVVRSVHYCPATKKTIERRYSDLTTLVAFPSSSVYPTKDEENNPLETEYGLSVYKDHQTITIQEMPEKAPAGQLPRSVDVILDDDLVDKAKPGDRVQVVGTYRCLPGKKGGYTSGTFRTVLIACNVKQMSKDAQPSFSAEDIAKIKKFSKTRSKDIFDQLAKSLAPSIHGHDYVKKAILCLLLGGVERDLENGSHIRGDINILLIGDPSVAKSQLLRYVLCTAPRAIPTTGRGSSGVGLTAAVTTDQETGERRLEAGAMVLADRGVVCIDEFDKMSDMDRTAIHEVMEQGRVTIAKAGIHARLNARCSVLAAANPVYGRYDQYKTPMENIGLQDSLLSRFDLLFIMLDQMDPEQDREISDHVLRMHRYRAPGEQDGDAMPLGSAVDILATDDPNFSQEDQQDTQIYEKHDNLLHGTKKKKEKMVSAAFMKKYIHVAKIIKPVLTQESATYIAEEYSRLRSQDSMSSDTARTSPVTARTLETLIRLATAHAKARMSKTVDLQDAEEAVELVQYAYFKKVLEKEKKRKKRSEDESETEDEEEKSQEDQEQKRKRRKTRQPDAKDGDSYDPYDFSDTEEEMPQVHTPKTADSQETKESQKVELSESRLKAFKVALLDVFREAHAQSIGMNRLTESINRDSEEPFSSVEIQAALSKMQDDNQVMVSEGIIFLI
Procedure: as §1, §2

O=C(NC1CC1)c1ccc(S(=O)(=O)n2cncn2)cc1 [HHS-0101, 4-((1H-1,2,4-triazol-1-yl)sulfonyl)-N-cyclopropylbenzamide]
liganded tyrosine site 251 [1]: HHS0101.Y|HHS0401.Y (tyrosine sites that showed >80% reductions (SR >5) in probe labeling in cells treated with compounds (liganded sites)) | liganded tyrosine site 332 [1]: HHS0101.Y (tyrosine sites that showed >80% reductions (SR >5) in probe labeling in cells treated with compounds (liganded sites))

O=C(NC1CCCCC1)c1ccc(S(=O)(=O)n2cncn2)cc1 [HHS-0301, 4-((1H-1,2,4-triazol-1-yl)sulfonyl)-N-cyclohexylbenzamide]
liganded tyrosine site 147 [2]: HHS0301.Y (tyrosine sites that showed >80% reductions (SR >5) in probe labeling in cells treated with compounds (liganded sites)) | liganded tyrosine site 234 [1]: HHS0301.Y|HHS0401.Y (tyrosine sites that showed >80% reductions (SR >5) in probe labeling in cells treated with compounds (liganded sites))

O=C(c1ccc(S(=O)(=O)n2cncn2)cc1)N1CCC(c2ccccc2)CC1 [HHS-0701, (4-((1H-1,2,4-triazol-1-yl)sulfonyl)phenyl)(4-phenylpiperidin-1-yl)methanone]
liganded tyrosine site 159 [2]: HHS0701.Y (tyrosine sites that showed >80% reductions (SR >5) in probe labeling in cells treated with compounds (liganded sites)) | liganded tyrosine site 188 [2]: HHS0701.Y (tyrosine sites that showed >80% reductions (SR >5) in probe labeling in cells treated with compounds (liganded sites))
